Usually melting point stands for the temperature, or range, at which the solid turns liquid.

Where only a bound is given, the exact number is not on record here.

For the molecule `COC(=O)C1CCCN1S(N)(=O)=O` (configuration not stated), the melting point fell in the range of 166 to 168 °C.

For `CC1(C)CCSc2ccc(C(O)COc3ccc(C(=O)O)c(O)c3)cc21` (configuration not stated), the melting point is 166 to 167 °C.

In turn, `O=c1oc2cc(O)c(O)c([N+](=O)[O-])c2cc1-c1nnn[nH]1` showed a melting point of over 315 °C.

`COc1ccc2c(CCN3CCCCC3=O)c[nH]c2c1` gave a melting point of 146 °C.

In the case of `CN(C)CC1CCc2cc(NC(=O)c3ccc(-c4ccc(Cl)c(Cl)c4)cc3)ccc2C1` (configuration not stated), the melting point is 143 to 145 °C.

For `Nc1nc(COc2ccccc2)nc2nccnc12`, the melting point was 202 to 204 °C.

On to `O=C1NC2(CCc3ccccc32)c2ccccc21` (configuration not stated), for which the melting point was in the range of 205 to 206 °C.

For `COc1ccc(CC(=O)NC(NC(=NC#N)Nc2cccc3ncccc23)C(C)(C)C)cc1OC` (configuration not stated), the melting point fell in the range of 128 to 129 °C.

Turning to `O=C(Nc1c[nH]nc1C(=O)NCCc1c[nH]c2ccccc12)c1ccccn1`, the melting point was in the range of 250 to 251 °C.

With `CCC1=CN2CC(c3ccc(Br)cc3)N=C2S1` (configuration not stated), the melting point was 74.8 °C.

In the case of `CCN(Cc1ccc(C(=O)O)cc1)c1cc(Br)ccc1OCc1ccccc1`, the melting point was 94.5 to 95 °C.

`CC(C)c1cc(C(=O)CI)cc(C(C)C)c1O` registered a melting point of 127 to 128 °C.

`CCSC1=NCC(=O)N1c1cc(Cl)ccc1C` came in with a melting point of 137 to 139 °C.

With `C[C@H](O)CNc1cc(Oc2ccc(F)cc2F)nc2[nH]nc(-c3ccccc3Cl)c12`, the melting point stood at 238 °C.

Take `COc1nc2ncnn2c(N2CCC(C)CC2)c1-c1ccc(C)cc1F`: the melting point is 201 °C.

Turning to `O=[N+]([O-])c1c(OCc2ccccc2)ccnc1F`, the melting point was in the range of 96 to 98 °C.

`Fc1ccc(-c2ccc(N3CCCN(c4ccc(-c5ccc(F)cc5)cn4)CC3)nc2)cc1` yielded a melting point of 268 to 270 °C.

As to `N=C(N)NCCCCOc1ccc2c(c1)CC(CC(=O)O)C(=O)N2` (configuration not stated), the melting point was in the range of 170 to 173 °C.

As to `CCCOc1ccccc1-c1ccoc1C(=O)NNC(=O)c1ccc(O)c(C#N)c1`, the melting point was in the range of 114 to 117 °C.

`CC(=O)Nc1ccc(Oc2ccc(S(C)(=O)=O)cc2C)cc1` came in with a melting point of 169 °C.

The molecule `COc1ccc(S(=O)(=O)CC(CS(=O)(=O)c2ccc(OC)cc2)C(=O)O)cc1` yielded a melting point of 174 to 175 °C.

Take `O=C1c2ccccc2C(=O)N1OCc1ccc(F)c(Oc2ccccc2)c1`: the melting point is 88.2 °C.

`O=C(/C=C/c1ccc(S(=O)(=O)N2CCN(c3cccc(C(F)(F)F)c3)CC2)cc1)NO` had a melting point of 178 to 179 °C.

The molecule `O=C(O)c1cc2n(c1)CCc1ccccc1C2=O` displayed a melting point of 287 to 290 °C.

In turn, `C=Cc1c(C)oc(-c2ccc(S(C)(=O)=O)cc2)c(Oc2ccc(F)cc2F)c1=O` had a melting point of 184 °C.

Consider `ONCc1ccc(N2CCC3(CC2)OCCO3)cc1`, for which the melting point is 107 to 109 °C.

For the molecule `CC1CCN(c2scc(C(C)(C)C)c2C#N)C1=O` (configuration not stated), the melting point was in the range of 92 to 94 °C.

In turn, `O=C(c1ccc(-c2ncn[nH]2)cc1)N1Cc2cccn2Cc2ccccc21` returned a melting point of 225 to 227 °C.

Regarding `Nc1cc2c(Nc3ccc(Br)c(Br)c3)ncnc2cn1`, the melting point fell in the range of 265 to 268 °C.

For `OC1CSC(Oc2cccc3conc23)C(O)C1O` (configuration not stated), the melting point worked out at 115 °C.

Molecule `O=C(O)C(O)=Cc1ccc([N+](=O)[O-])s1` came in with a melting point of 192 to 193 °C.

In turn, `Cc1cccc(C(=O)NCN2CCN(c3ccccc3C#N)CC2)c1` displayed a melting point of 131 to 133 °C.

Regarding `CC(C)(C)c1cc(SC(Sc2cc(C(C)(C)C)c(O)c(C(C)(C)C)c2)c2ccccc2)cc(C(C)(C)C)c1O`, the melting point was 122 to 124 °C.

Molecule `Cc1ccc(/C=C/c2sccc2S(=O)(=O)Nc2onc(C)c2Br)cc1` showed a melting point of 101 to 105 °C.

In the case of `Nc1ccc(CC(NC(=O)CCCCCCCCCCCNC(=O)C(c2ccccc2)c2ccccc2)c2ccccc2)cc1` (configuration not stated), the melting point was 107 to 114 °C.

Molecule `COc1ccc(Cn2cnc(=O)c3[nH]c(C(C)C)nc32)cc1OC1CCCC1` came in with a melting point of 243 to 244 °C.

In turn, `CCCCOc1ccc(Cc2cnc(N)nc2N)cc1OC` gave a melting point of 143 to 147 °C.

As to `CC(C)c1ccc(-c2ccc(Sc3ccccc3)s2)cc1`, the melting point was 61 to 63 °C.

`CCn1c(N)c(-c2ncc[nH]2)c(=O)c2ccc(-c3ccc(CC(=O)NCc4ccncc4)nc3)nc21` showed a melting point of 120 °C.

The molecule `CCOC(=O)CCCn1c(Nc2c(C)noc2C)nc2c(Cl)ccc(C(CC)CC)c21` came in with a melting point of 135 to 138 °C.

Turning to `CC(C)N(C(=O)COc1c(F)cc(-c2ccc(C(=O)O)cc2)cc1[N+](=O)[O-])C(C)C`, the melting point turned out to be 202 °C.

Consider `CCCCc1ccc(NC(=O)CCc2ccccc2)c(=O)n1CC(=O)OC`, for which the melting point lay in the range of 84 to 85 °C.

In turn, `O=C(O)c1ccc(N(CC2CC2)c2cc3c4c(c2)CCCC4CCC3)cc1` came in with a melting point of 214 to 216 °C.

In turn, `C=CC(=O)Nc1ccc2c(c1)nnn2C(C)=O` returned a melting point of 167 to 170 °C.

Consider `CC(C)(C)OC1CCC(C(=O)O)CC1` (configuration not stated), for which the melting point lay within 100 to 105 °C.

Regarding `O=C(NCC12CC3CC(CC(C3)C1)C2)c1c(Cl)ccc2nc(N3CCC[C@@H](C(=O)O)C3)ccc12`, the melting point is 257 to 262 °C.

The molecule `CCCCNC(=O)c1ccc(Cl)c(-n2nc(CCCC)n(Cc3ccc(-c4ccccc4S(N)(=O)=O)cc3F)c2=O)c1` had a melting point of 108 to 110 °C.

`CCCn1c(=O)c2[nH]c(C3CCCO3)nc2n(CCC)c1=O` (configuration not stated) had a melting point of 155 to 158 °C.

In the case of `CS(=O)(=O)c1cc(OCc2ccccc2)c(C(=O)O)s1`, the melting point was in the range of 188 to 189 °C.

Molecule `COc1ccc(C#CCCN2CCOC2=O)cc1OC` registered a melting point of 78 to 79 °C.

`CC(C)c1cc2c(c3c1C(=O)NS3(=O)=O)OCO2` returned a melting point of 226 to 228 °C.

For the molecule `COP(=O)(COC1C=CC(n2cnc3c(N)ncnc32)O1)OC` (configuration not stated), the melting point is 146 to 149 °C.

For `CCCCCC(=O)O[C@H]1C[C@H](O)C=C2C=C[C@H](C)[C@H](CC[C@@H]3C[C@@H](O)CC(=O)O3)[C@H]21`, the melting point lay in the range of 138 to 139 °C.

The molecule `CC(C(=S)c1cccc(NC=O)n1)S(C)=O` (configuration not stated) came in with a melting point of 130 to 132 °C.

`CCC(=O)NC[C@@H]1C[C@H]1c1cccc2nn(C)cc12` (relative stereo) showed a melting point of 79 to 80 °C.

The molecule `N#Cc1c(Cl)c(Cl)c(NCCN)c(Cl)c1Cl` displayed a melting point of 140 to 144 °C.

`Cc1cc(Cl)ccc1OCC(=O)N1Cc2ccc(C(=O)c3cccc4ccccc34)n2Cc2ccccc21` had a melting point of 130 to 134 °C.

With `CC(C)(C)NC(=O)[C@@H]1C[C@H](Br)CN1C(=O)[C@@H](O)[C@H](Cc1ccccc1)NC(=O)[C@H](CC(N)=O)NC(=O)OCc1ccccc1`, the melting point was in the range of 100 to 105 °C.

In turn, `CC(C)(C)c1cc(NC(=O)NCCCl)cc(C(C)(C)C)c1O` had a melting point of 169 to 171 °C.

`CC(C#N)(COc1ccccc1C(F)(F)F)NC(=O)c1ccc(C(=O)c2ccccc2)cc1` (configuration not stated) showed a melting point of 121 to 123 °C.

`CCCc1c(OCCCOc2ccc3c(c2CCC)OC(CCC(=O)OC)CC3=O)ccc(C(C)=O)c1O` (configuration not stated) registered a melting point of 101 to 102 °C.

On to `CC(C)=C(C(=O)O)c1ccc(Cl)cc1`, for which the melting point lay within 144 to 145 °C.
